Data as given in patent publication US8008285B2, “Droxidopa and pharmaceutical composition thereof for the treatment of fibromyalgia” (Chelsea Therapeutics, Inc., priority 2007, dated 2011).
Where “and” joins values, the source holds several entries; their conditions need not be identical. Equal values may be shown once.

Key:
[1] = test system: Chronic Constriction Injury (CCI) model; test: Chronic Constriction Injury (CCI) model, mechanical allodynia (electronic Von Frey); assay type: in vivo, rat; details: 60 minutes post dosing; for levels of allodynia compared with vehicle treated animals: ANOVA followed by t-test, significant at P<0.05; for levels of allodynia compared with vehicle treated animals / (3) Post-Treatment (tactile pressure threshold), Ave. / (3) − (2), Ave. / Inhibition (%) of allodynia, Ave. / (3) Post-Treatment (tactile pressure threshold) / (3) − (2) (Post-Treatment minus Pre-Treatment) / Inhibition (%) of allodynia: IP; for (3) Post-Treatment (tactile pressure threshold), Ave. / (3) − (2), Ave. / Inhibition (%) of allodynia, Ave.: group average of 10 animals; for (3) Post-Treatment (tactile pressure threshold), Ave. / (3) − (2), Ave. / Inhibition (%) of allodynia, Ave. / (3) Post-Treatment (tactile pressure threshold) / (3) − (2) (Post-Treatment minus Pre-Treatment) / Inhibition (%) of allodynia: 400 mg/kg droxidopa and 20 mg/kg carbidopa, or 18 mg/kg fluoxetine; for (3) Post-Treatment (tactile pressure threshold) / (3) − (2) (Post-Treatment minus Pre-Treatment) / Inhibition (%) of allodynia: individual animals, male Wistar rats
Method: Treatment of fibromyalgia through reducing sensitivity to chronic pain using droxidopa in combination with carbidopa was investigated using the Chronic Constriction Injury (CCI) model. […] Specifically, after anesthetization using pentobarbital (50 mg/kg, 5 ml/kg, i.p.), the sciatic nerve was exposed at mid-thigh level, and three ligatures (4-0 silk suture), about 1 mm apart, were loosely tied around the nerve. The animals were then housed individually in cages with soft bedding for seven days before testing for mechanical allodynia. […] The tip was gradually applied with sufficient force to cause slight buckling of the filament against the paw. […] Allodynia was calculated according to the following formula: % Inhibition=ΔTreatment/ΔBlank×100%. where Δ Treatment is the change in tactile pressure threshold over pre-treatment after ligation [(Post-Treatment)-(Pre-Treatment)], and Δ Blank is change in tactile pressure threshold over pre-ligation but before treatment [(Pre-Ligation)-(Pre-Treatment)]. A one-way ANOVA followed by t-test was applied for comparison between test substance treated groups and the vehicle control group. Activity was considered significant at P<0.05.

[2] = test system: plasma norepinephrine; test: Plasma norepinephrine concentration after dosing droxidopa combinations; assay type: in vivo, rat; details: 2 hours post-dosing, rats
Method: The pharmacokinetic properties of droxidopa combinations useful in the methods of the invention were evaluated in male Sprague Dawley rats.
Administration of droxidopa combinations was seen to affect plasma norepinephrine concentration in comparison to administration of droxidopa alone. Formulation 0 indicates administration of the vehicle alone without droxidopa or a droxidopa combination of the invention and provides a baseline comparative of plasma norepinephrine levels in an untreated subject.

[3] = molecular target: T1, MAO-A (Homo sapiens, UniProt P21397); details: cited from earlier work
T1 sequence (P21397 1-527): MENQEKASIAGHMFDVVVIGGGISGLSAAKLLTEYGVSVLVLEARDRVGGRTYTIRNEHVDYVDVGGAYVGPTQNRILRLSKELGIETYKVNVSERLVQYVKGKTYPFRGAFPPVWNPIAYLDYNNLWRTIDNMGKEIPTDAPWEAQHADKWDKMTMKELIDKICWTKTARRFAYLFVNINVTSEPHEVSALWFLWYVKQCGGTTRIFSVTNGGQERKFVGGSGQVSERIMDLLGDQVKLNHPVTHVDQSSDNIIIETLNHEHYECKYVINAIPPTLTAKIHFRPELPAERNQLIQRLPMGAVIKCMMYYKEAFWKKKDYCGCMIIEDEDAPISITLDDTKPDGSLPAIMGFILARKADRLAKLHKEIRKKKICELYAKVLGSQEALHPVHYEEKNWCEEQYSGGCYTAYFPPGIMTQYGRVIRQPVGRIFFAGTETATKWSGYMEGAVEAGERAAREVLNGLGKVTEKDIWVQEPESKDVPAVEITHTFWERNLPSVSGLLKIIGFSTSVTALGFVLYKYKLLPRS

Compound	levels of allodynia compared with vehicle treated animals [1]	(3) Post-Treatment (tactile pressure threshold), Ave. [1]	(3) − (2), Ave. [1]	Inhibition (%) of allodynia, Ave. [1]	(3) Post-Treatment (tactile pressure threshold) [1]	(3) − (2) (Post-Treatment minus Pre-Treatment) [1]	Inhibition (%) of allodynia [1]	increase in plasma norepinephrine concentration (fold over vehicle alone) [2]	Inhibition (%) of allodynia, Ave. ([1]; listed as fluoxetine)	Inhibition (%) of allodynia ([1]; listed as fluoxetine)	increases in allodynia ([1]; individual fluoxetine-treated subjects, 18 mg/kg IP)	selectivity for MAO-A than MAO-B [3]
NC(C(=O)O)C(O)c1ccc(O)c(O)c1 (stereo not drawn) [Droxidopa, threo-3-(3,4-dihydroxyphenyl)serine]	significantly decreased levels of allodynia	21.7	13.2	65.7%	26.3 and 32.1 and 23.4 and 26.2 and 22.9 and 11.4 and 20.1 and 12.6 and 22.3 and 19.7	16.2 and 24.4 and 16.7 and 14.4 and 16.3 and 2.8 and 13.8 and 6 and 10.9 (2×)	total allodynia inhibition in several test subjects and 104.5% and 115.6% and 66.3% and 75.8% and 74.4% and 11.5% and 72.6% and 26.1% and 62.3% and 48.0%	~5 fold				
CNCCC(Oc1ccc(C(F)(F)F)cc1)c1ccccc1 (stereo not shown) [Fluoxetine, fluoxetine]	not significantly different from vehicle-treated rats	9.2	0.4	0.7%	14.4 and 12.4 and 11.2 and 9.7 and 7 and 10.4 and 6.5 and 8.8 and 6 and 5.9	5.3 and 1.2 and 3 (2×) and 0.6 (2×) and 1.6 and −5.5 and −2.7 and −3.6	25.0% and 5.9% and 17.3% and 3.8% (2×) and 6.1% and 12.2% and −40.1% and −12.1% and −14.6%		less than 1%	25%	≤ 40.1%	
O=C(NCCN1CCOCC1)c1ccc(Cl)cc1 [moclobemide]												approximately three
